Experimental data as given in PubChem BioAssay AID330 (DTP/NCI, 2004).
Where “and” joins values, the source holds several entries; their conditions need not be identical. Equal entries are not always repeated. Toxic doses and inconclusive results are not listed. Rule for the calls: active = survival T/C of 150% or more; inactive = T/C below 125% in these data. Square brackets hold non-standard residues; d marks the D form. Peptide text beside a SMILES is read from it. ξ: configuration not given here. ξQ = NC(=O)CCC(N)C(=O)O

Tested on: P388 leukemia ip, CD2F1 mice, survival T/C
Assay: NCI In Vivo Anticancer Drug Screen. Data for tumor model P388 Leukemia (intraperitoneal) in CD2F1 (CDF1) mice
Settings: endpoint: median survival time, higher = longer survival
In short: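 Mice carrying the transplanted tumor received test compound or vehicle. Survival was recorded in each group, and the value is the treated-group measurement divided by that of the vehicle-treated control group.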

[1] = dose: 100.0 mg/kg/injection, schedule: Q04DX002 (ip), vehicle: saline
[2] = dose: 200.0 mg/kg/injection, schedule: Q04DX002 (ip), vehicle: saline
[3] = dose: 400.0 mg/kg/injection, schedule: Q04DX002 (ip), vehicle: saline
[4] = dose: 25.0 mg/kg/injection, schedule: Q01DX009 (ip), vehicle: saline with Tween-80
[5] = dose: 50.0 mg/kg/injection, schedule: Q01DX009 (ip), vehicle: saline with Tween-80
[6] = dose: 100.0 mg/kg/injection, schedule: Q01DX009 (ip), vehicle: saline with Tween-80
[7] = dose: 200.0 mg/kg/injection, schedule: Q01DX009 (ip), vehicle: saline with Tween-80
[8] = dose: 50.0 mg/kg/injection, schedule: Q01DX005 (ip), vehicle: Klucel (hydroxypropylcellulose) (HPC)
[9] = dose: 100.0 mg/kg/injection, schedule: Q01DX005 (ip), vehicle: Klucel (hydroxypropylcellulose) (HPC)
[10] = dose: 200.0 mg/kg/injection, schedule: Q01DX005 (ip), vehicle: Klucel (hydroxypropylcellulose) (HPC)
[11] = dose: 50.0 mg/kg/injection, schedule: Q01DX009 (ip), vehicle: saline
[12] = dose: 100.0 mg/kg/injection, schedule: Q01DX009 (ip), vehicle: saline
[13] = dose: 200.0 mg/kg/injection, schedule: Q01DX009 (ip), vehicle: saline
[14] = dose: 12.5 mg/kg/injection, schedule: Q01DX009 (ip), vehicle: saline with Tween-80

Measured: T/C

O=c1[nH]c2ccccc2c(=O)n1-c1cccs1
inactive: [1] 105 % of control | [2] 105 % of control | [3] 99 % of control

CCOC(=O)C(=Cc1ccccc1Cl)C(=O)OCC
inactive: [4] 100 % of control and 111 % of control | [5] 110 % of control | [6] 102 % of control and 120 % of control | [7] 116 % of control

C1C2OC2C2C1C1CC2C2OC12 (stereo not given)
inactive: dose: 6.25 mg/kg/injection, schedule: Q01DX009 (ip), vehicle: Klucel (hydroxypropylcellulose) (HPC) 105 % of control | dose: 12.5 mg/kg/injection, schedule: Q01DX009 (ip), vehicle: Klucel (hydroxypropylcellulose) (HPC) 96 % of control | dose: 25.0 mg/kg/injection, schedule: Q01DX009 (ip), vehicle: Klucel (hydroxypropylcellulose) (HPC) 99 % of control

CN(C)C(=S)Nc1ccc(S(=O)(=O)N2CCCCC2)cc1
inactive: dose: 50.0 mg/kg/injection, schedule: Q01DX009 (ip), vehicle: Klucel (hydroxypropylcellulose) (HPC) 105 % of control | dose: 100.0 mg/kg/injection, schedule: Q01DX009 (ip), vehicle: Klucel (hydroxypropylcellulose) (HPC) 105 % of control | dose: 200.0 mg/kg/injection, schedule: Q01DX009 (ip), vehicle: Klucel (hydroxypropylcellulose) (HPC) 105 % of control | dose: 400.0 mg/kg/injection, schedule: Q01DX009 (ip), vehicle: Klucel (hydroxypropylcellulose) (HPC) 101 % of control

COc1cc(-c2ccc(N=Nc3c(O)c(C(=O)Nc4ccccc4OC)cc4ccccc34)c(OC)c2)ccc1N=Nc1c(O)c(C(=O)Nc2ccccc2OC)cc2ccccc12
inactive: dose: 6.25 mg/kg/injection, schedule: Q01DX005 (ip), vehicle: saline with Tween-80 90 % of control | dose: 12.5 mg/kg/injection, schedule: Q01DX005 (ip), vehicle: saline with Tween-80 96 % of control | dose: 25.0 mg/kg/injection, schedule: Q01DX005 (ip), vehicle: saline with Tween-80 89 % of control

CCOC(=O)/C(C#N)=C\c1c(OC(C)=O)cn2c(C)cccc12
inactive: dose: 100.0 mg/kg/injection, schedule: Q01DX001 (ip), vehicle: saline with Tween-80 104 % of control | dose: 200.0 mg/kg/injection, schedule: Q01DX001 (ip), vehicle: saline with Tween-80 98 % of control | dose: 400.0 mg/kg/injection, schedule: Q01DX001 (ip), vehicle: saline with Tween-80 98 % of control

c1ccc2c(c1)Cc1nc3ccccc3nc1-2
inactive: [6] 100 % of control | [7] 95 % of control | dose: 400.0 mg/kg/injection, schedule: Q01DX009 (ip), vehicle: saline with Tween-80 100 % of control

COc1cc(CCNC(C)=O)c(NC=O)cc1OC
inactive: [1] 108 % of control | [2] 105 % of control | [3] 99 % of control

C#CCCCC#C
inactive: [8] 98 % of control | [9] 98 % of control | [10] 104 % of control

Cc1ccc(S(=O)(=O)Nc2cc(S(=O)(=O)O)c(N)c3c2C(=O)c2ccccc2C3=O)cc1
inactive: [11] 86 % of control | [12] 97 % of control | [13] 101 % of control

CSCC[C@@H]1C(=O)N(C)[C@H](C(C)(C)C)N1C(=O)c1ccccc1
inactive: dose: 60.0 mg/kg/injection, schedule: Q01DX005 (ip), vehicle: saline with Tween-80 100 % of control | dose: 120.0 mg/kg/injection, schedule: Q01DX005 (ip), vehicle: saline with Tween-80 100 % of control | dose: 240.0 mg/kg/injection, schedule: Q01DX005 (ip), vehicle: saline with Tween-80 97 % of control

C=C(CN1CCOCC1)C(=O)c1ccccc1
inactive: dose: 1.89 mg/kg/injection, schedule: Q01DX005 (ip), vehicle: saline 105 % of control | dose: 3.75 mg/kg/injection, schedule: Q01DX005 (ip), vehicle: saline 112 % of control | dose: 7.5 mg/kg/injection, schedule: Q01DX005 (ip), vehicle: saline 100 % of control and 105 % of control

O=C1COC(c2ccccc2O)=NN1CCCl
inactive: [5] 103 % of control | [6] 103 % of control | [7] 110 % of control

CC(=O)C1(CCC(C)(S(=O)(=O)c2ccccc2)S(=O)(=O)c2ccccc2)CCCCC1=O (stereo not given)
inactive: dose: 100.0 mg/kg/injection, schedule: Q01DX001 (ip), vehicle: Klucel (hydroxypropylcellulose) (HPC) 99 % of control | dose: 200.0 mg/kg/injection, schedule: Q01DX001 (ip), vehicle: Klucel (hydroxypropylcellulose) (HPC) 100 % of control | dose: 400.0 mg/kg/injection, schedule: Q01DX001 (ip), vehicle: Klucel (hydroxypropylcellulose) (HPC) 106 % of control

CCN(CC)c1ccc2c(-c3ccccc3C(=O)O)c3ccc(=[N+](CC)CC)cc-3oc2c1
inactive: dose: 5.0 mg/kg/injection, schedule: Q01DX009 (ip), vehicle: saline with Tween-80 104 % of control | dose: 10.0 mg/kg/injection, schedule: Q01DX009 (ip), vehicle: saline with Tween-80 104 % of control | dose: 20.0 mg/kg/injection, schedule: Q01DX009 (ip), vehicle: saline with Tween-80 100 % of control

O=C(Nc1ccccc1)Sc1nc2ccccc2s1
inactive: [11] 102 % of control | [12] 104 % of control | [13] 104 % of control

CC(C)Nc1nc(NCC2CC2)nc(ON2C(=O)CCC2=O)n1
inactive: [14] 100 % of control | [4] 99 % of control | [5] 100 % of control and 86 % of control | [7] 104 % of control

Cn1cnc2c(F)ncnc21
inactive: [8] 100 % of control | [9] 101 % of control

COC(=O)C1=C/CCCN(C(c2ccccc2)c2ccccc2)/C=C\1C(=O)OC
inactive: dose: 100.0 mg/kg/injection, schedule: Q01DX001 (ip), vehicle: saline 99 % of control | dose: 200.0 mg/kg/injection, schedule: Q01DX001 (ip), vehicle: saline 91 % of control | dose: 400.0 mg/kg/injection, schedule: Q01DX001 (ip), vehicle: saline 95 % of control

COC(=O)/C(=C/Cl)NC(C)=O
inactive: dose: 12.5 mg/kg/injection, schedule: Q01DX001 (ip), vehicle: suspension in saline 91 % of control | dose: 25.0 mg/kg/injection, schedule: Q01DX001 (ip), vehicle: suspension in saline 99 % of control | dose: 50.0 mg/kg/injection, schedule: Q01DX001 (ip), vehicle: suspension in saline 92 % of control | dose: 200.0 mg/kg/injection, schedule: Q01DX001 (ip), vehicle: suspension in saline 98 % of control

NC(=O)CCC(N)C(=O)NCC(=O)O (stereo not given) (H-[ξQ]-Gly-OH)
inactive: dose: 12.5 mg/kg/injection, schedule: Q01DX005 (ip), vehicle: distilled water + Tween-80 106 % of control | dose: 25.0 mg/kg/injection, schedule: Q01DX005 (ip), vehicle: distilled water + Tween-80 109 % of control | dose: 50.0 mg/kg/injection, schedule: Q01DX005 (ip), vehicle: distilled water + Tween-80 104 % of control | dose: 100.0 mg/kg/injection, schedule: Q01DX005 (ip), vehicle: distilled water + Tween-80 109 % of control | dose: 200.0 mg/kg/injection, schedule: Q01DX005 (ip), vehicle: distilled water + Tween-80 113 % of control

COc1ccc(SS(=O)c2ccccc2)cc1 (stereo not given)
inactive: dose: 100.0 mg/kg/injection, schedule: Q04DX002 (ip), vehicle: saline with Tween-80 105 % of control | dose: 200.0 mg/kg/injection, schedule: Q04DX002 (ip), vehicle: saline with Tween-80 111 % of control | dose: 400.0 mg/kg/injection, schedule: Q04DX002 (ip), vehicle: saline with Tween-80 108 % of control

CC1=CC(O)CC(C)(C)C1 (stereo not given)
inactive: [11] 106 % of control | [12] 100 % of control | [13] 99 % of control

COC1=CC(=O)C(CC=C(C)C)=CC1=O
inactive: [8] 100 % of control | [9] 102 % of control | [10] 105 % of control

O=c1[nH]c(=O)n(O)c2nc[nH]c12
inactive: [14] 90 % of control | [4] 100 % of control | [5] 90 % of control
